Measurements: US7229782B1, “Antibodies specific to multiple beta blockers and methods for their use” (LabOne, Inc., priority 2004, dated 2007)

tested on: antibody of the present invention; test: Interference from other drugs, homogeneous enzyme immunoassay; format: binding, rabbit; settings: chemical at 10.0 μg/ml urine; cutoff 5.0 μg Atenolol per ml of urine; tested three times
Protocol: Samples were checked for turbidity and growth. A homogeneous enzyme immunoassay was carried out on an Olympus AU-5200 analyzer using the following assay parameters:
Reagent 1 is comprised of a titer of 1–500 dilution of an antibody of the present invention, 11.25 mM NAD+, 11.25 mM G6P, 0.1% w/v sodium azide and 100 mM Tris.
Reagent 2 is comprised of a titer of 1–2000 dilution of a G6PDH-beta blocker conjugate, 0.1% w/v sodium azide, and 50 mM Tris.
A homogenous calibrator containing sodium azide was used to calibrate the analyzer prior to each run.
The analytical cutoff for the test was set at 5.0 μg Atenolol per ml of urine. The result was scored as a positive if the signal strength was greater than that produced by 5.0 μg Atenolol per ml of urine.
Interference from other drugs was tested using fifty-five (55) frequently used chemicals and medicines, at concentrations of 10.0 μg/ml urine.
The samples were tested three times, following the procedures used in Example 3.

Compound	Beta-Blocker Pos./Neg.
CCC(=O)C(CC(C)N(C)C)(c1ccccc1)c1ccccc1 (racemic) [Methadone (DL-)]	Neg. (scored as a positive if the signal strength was greater than that produced by 5.0 μg Atenolol per ml of urine)
CN1C(=O)CC[C@H]1c1cccnc1 [(−)-Cotinine]	Neg. (scored as a positive if the signal strength was greater than that produced by 5.0 μg Atenolol per ml of urine)
CC(=O)Oc1ccccc1C(=O)O [Acetylsalicylic Acid]	Neg. (scored as a positive if the signal strength was greater than that produced by 5.0 μg Atenolol per ml of urine)
Cc1nnc2n1-c1ccc(Cl)cc1C(c1ccccc1)=NC2 [Alprazolam]	Neg. (scored as a positive if the signal strength was greater than that produced by 5.0 μg Atenolol per ml of urine)
C[C@H](N)Cc1ccccc1 [Amphetamine (D-)]	Neg. (scored as a positive if the signal strength was greater than that produced by 5.0 μg Atenolol per ml of urine)
CC1(C)S[C@@H]2[C@H](NC(=O)[C@H](N)c3ccccc3)C(=O)N2[C@H]1C(=O)O [Ampicillin]	Neg. (scored as a positive if the signal strength was greater than that produced by 5.0 μg Atenolol per ml of urine)
CN1[C@H]2CC[C@@H]1[C@@H](C(=O)O)[C@@H](OC(=O)c1ccccc1)C2 [Benzoylecgonine]	Neg. (scored as a positive if the signal strength was greater than that produced by 5.0 μg Atenolol per ml of urine)
C=CCC1(CC(C)C)C(=O)NC(=O)NC1=O [Butalbital]	Neg. (scored as a positive if the signal strength was greater than that produced by 5.0 μg Atenolol per ml of urine)
Cn1c(=O)c2c(ncn2C)n(C)c1=O [Caffeine]	Neg. (scored as a positive if the signal strength was greater than that produced by 5.0 μg Atenolol per ml of urine)
CN(C)CCCN1c2ccccc2Sc2ccc(Cl)cc21 [Chlorpromazine]	Neg. (scored as a positive if the signal strength was greater than that produced by 5.0 μg Atenolol per ml of urine)
O=C1CN=C(c2ccccc2Cl)c2cc([N+](=O)[O-])ccc2N1 [Clonazepam]	Neg. (scored as a positive if the signal strength was greater than that produced by 5.0 μg Atenolol per ml of urine)
O=C(O)C1N=C(c2ccccc2)c2cc(Cl)ccc2NC1=O (stereo not drawn) [Clorazepate]	Neg. (scored as a positive if the signal strength was greater than that produced by 5.0 μg Atenolol per ml of urine)
CCOC(=O)[C@@H]1C2CCC(C[C@@H]1OC(=O)c1ccccc1)N2C (stereo partly drawn) [Cocainethylene]	Neg. (scored as a positive if the signal strength was greater than that produced by 5.0 μg Atenolol per ml of urine)
COc1ccc2c3c1O[C@H]1[C@@H](O)C=C[C@H]4[C@@H](C2)N(C)CC[C@@]341 [Codeine]	Neg. (scored as a positive if the signal strength was greater than that produced by 5.0 μg Atenolol per ml of urine)
COc1ccc2c(c1)[C@]13CCCC[C@@H]1[C@H](C2)N(C)CC3 [Dextromethorphan]	Neg. (scored as a positive if the signal strength was greater than that produced by 5.0 μg Atenolol per ml of urine)
COC(=O)[C@@H]1[C@H]2CC[C@@H](C[C@@H]1O)N2C.Cl [Ecgonine Methyl Ester Hydrochloride]	Neg. (scored as a positive if the signal strength was greater than that produced by 5.0 μg Atenolol per ml of urine)
CN[C@@H](C)[C@H](O)c1ccccc1 [Ephedrine (L-)]	Neg. (scored as a positive if the signal strength was greater than that produced by 5.0 μg Atenolol per ml of urine)
CN[C@@H](C)[C@H](O)c1ccccc1.Cl [Ephedrine Hydrochloride (1R,2S)-(−)]	Neg. (scored as a positive if the signal strength was greater than that produced by 5.0 μg Atenolol per ml of urine)
CC(C(=O)O)c1cccc(Oc2ccccc2)c1 (stereo not drawn) [Fenoprofen]	Neg. (scored as a positive if the signal strength was greater than that produced by 5.0 μg Atenolol per ml of urine)
Cc1ccc(C)c(OCCCC(C)(C)C(=O)O)c1 [Gemfibrozil]	Neg. (scored as a positive if the signal strength was greater than that produced by 5.0 μg Atenolol per ml of urine)
O=C(O)c1cc(O)ccc1O [Gentisic Acid]	Neg. (scored as a positive if the signal strength was greater than that produced by 5.0 μg Atenolol per ml of urine)
COc1ccc2c3c1O[C@H]1C(=O)CC[C@H]4[C@@H](C2)N(C)CC[C@]314 [Hydrocodone]	Neg. (scored as a positive if the signal strength was greater than that produced by 5.0 μg Atenolol per ml of urine)
CC(C)Cc1ccc(C(C)C(=O)O)cc1 (stereo not drawn) [Ibuprofen]	Neg. (scored as a positive if the signal strength was greater than that produced by 5.0 μg Atenolol per ml of urine)

Compound	Beta-Blocker Pos./Neg.
CN(C)CCCN1c2ccccc2CCc2ccccc21 [Imipramine]	Neg. (scored as a positive if the signal strength was greater than that produced by 5.0 μg Atenolol per ml of urine)
CCN(CC)CC(=O)Nc1c(C)cccc1C [Lidocaine]	Neg. (scored as a positive if the signal strength was greater than that produced by 5.0 μg Atenolol per ml of urine)
CN[C@@H](C)Cc1ccccc1 [Methamphetamine (D-)]	Neg. (scored as a positive if the signal strength was greater than that produced by 5.0 μg Atenolol per ml of urine)
C=CCN1CC[C@]23c4c5ccc(O)c4O[C@H]2[C@@H](O)C=C[C@H]3[C@H]1C5 [Nalorphine]	Neg. (scored as a positive if the signal strength was greater than that produced by 5.0 μg Atenolol per ml of urine)
COc1ccc2cc([C@H](C)C(=O)O)ccc2c1 [Naproxen]	Neg. (scored as a positive if the signal strength was greater than that produced by 5.0 μg Atenolol per ml of urine)
NC(=O)c1cccnc1 [Niacinamide]	Neg. (scored as a positive if the signal strength was greater than that produced by 5.0 μg Atenolol per ml of urine)
CCCC(C)C1(CC)C(=O)NC(=O)NC1=O (stereo not drawn) [Pentobarbital]	Neg. (scored as a positive if the signal strength was greater than that produced by 5.0 μg Atenolol per ml of urine)
c1ccc(C2(N3CCCCC3)CCCCC2)cc1 [Phencyclidine]	Neg. (scored as a positive if the signal strength was greater than that produced by 5.0 μg Atenolol per ml of urine)
NCCc1ccccc1 [Phenethylamine (beta-)]	Neg. (scored as a positive if the signal strength was greater than that produced by 5.0 μg Atenolol per ml of urine)
CNC[C@H](O)c1cccc(O)c1 [Phenylephrine]	Neg. (scored as a positive if the signal strength was greater than that produced by 5.0 μg Atenolol per ml of urine)
CC(N)C(O)c1ccccc1 (stereo not drawn) [Phenylpropanolamine]	Neg. (scored as a positive if the signal strength was greater than that produced by 5.0 μg Atenolol per ml of urine)
CCN(CC)CCNC(=O)c1ccc(N)cc1 [Procainamide]	Neg. (scored as a positive if the signal strength was greater than that produced by 5.0 μg Atenolol per ml of urine)
CCN(CC)CCOC(=O)c1ccc(N)cc1 [Procaine]	Neg. (scored as a positive if the signal strength was greater than that produced by 5.0 μg Atenolol per ml of urine)
CN[C@@H](C)[C@@H](O)c1ccccc1 [Pseudoephedrine]	Neg. (scored as a positive if the signal strength was greater than that produced by 5.0 μg Atenolol per ml of urine)
C=C[C@H]1C[N@@]2CC[C@H]1C[C@@H]2[C@@H](O)c1ccnc2ccc(OC)cc12 [Quinidine]	Neg. (scored as a positive if the signal strength was greater than that produced by 5.0 μg Atenolol per ml of urine)
CN1C(=O)C(O)N=C(c2ccccc2)c2cc(Cl)ccc21 (stereo not drawn) [Temazepam]	Neg. (scored as a positive if the signal strength was greater than that produced by 5.0 μg Atenolol per ml of urine)
Cn1c(=O)c2[nH]cnc2n(C)c1=O [Theophylline]	Neg. (scored as a positive if the signal strength was greater than that produced by 5.0 μg Atenolol per ml of urine)
Cc1cc(CC(=O)O)n(C)c1C(=O)c1ccc(Cl)cc1 [Zomepirac]	Neg. (scored as a positive if the signal strength was greater than that produced by 5.0 μg Atenolol per ml of urine)
(−)-11-NOR-9-Carboxy-Delta9-THC	Neg. (scored as a positive if the signal strength was greater than that produced by 5.0 μg Atenolol per ml of urine)
Ecgonine Hydrochloride	Neg. (scored as a positive if the signal strength was greater than that produced by 5.0 μg Atenolol per ml of urine)
PCP	Neg. (scored as a positive if the signal strength was greater than that produced by 5.0 μg Atenolol per ml of urine)
Penicillin	Neg. (scored as a positive if the signal strength was greater than that produced by 5.0 μg Atenolol per ml of urine)
